Assay [1] has as its system patient with nasal congestion. The assay can be described thus: Composition given to a patient with nasal congestion. It is filed as in vivo, human. The method, then: One tablet is swallowed by a patient with nasal congestion.
One tablet is chewed and swallowed by a patient with nasal congestion.
One tablet is placed under the tongue of a patient with nasal congestion and allowed to dissolve.
One-tenth of a mL of the composition is sprayed from a pump actuator into each nostril of a patient with nasal congestion.
One-fifth of a mL of the composition is applied as drops from a dropper into each nostril of a patient with nasal congestion.
One 15 mL dose of the alcohol-free liquid medication is swallowed by a patient with nasal congestion.

In assay [2] the test system is patient with nasal congestion and runny nose due to allergic rhinitis. The assay can be described thus: Oral liquid given to a patient with nasal congestion and runny nose due to allergic rhinitis. It is filed as in vivo, human. Particulars: Example H oral liquid, 15 mg with chlorpheniramine maleate 4 mg per 15 mL dose, one dose swallowed. The method, then: One 15 mL dose of the liquid composition is swallowed by a patient with nasal congestion and runny nose due to allergic rhinitis.

A further assay concerns patient with asthma. The assay can be described thus: Inhalation aerosol given to a patient with asthma. To be noted: Example F inhalation aerosol 5.0 % w/v, two puffs from a metered-dose inhaler. It counts as in vivo, human. The source says: Two-puffs of the aerosol composition is inhaled from a metered-dose inhaler by a patient with asthma.
For assay [3], the system named is human subject suffering from septic or cardiogenic shock. Kind of assay: Intravenous solution given to a human subject suffering from septic or cardiogenic shock. It counts as in vivo. To be noted: Example T solution 10 mg/ml carrier, approximately 2.0 ml intravenously. The protocol: The above ingredients are mixed, forming a solution. Approximately 2.0 ml of the solution is administered, intravenously, to a human subject suffering from septic or cardiogenic shock.

In another assay the test system is patient with glaucoma. Kind of assay: Topical ophthalmic composition given to a patient with glaucoma, intraocular pressure. It is filed as in vivo, human. To be noted: Example G topical ophthalmic composition 0.10 % w/v, one-tenth of a mL into each eye. The protocol: One-tenth of a mL of the composition is administered directly into each eye of a patient with glaucoma.

The subject of the next assay is patient with migraine. Kind of assay: Oral tablet given to a patient with migraine. It is filed as in vivo, human. Particulars: Example K oral tablet, 4 mg per tablet, one tablet swallowed. The source says: One tablet is swallowed by a patient with migraine.

Turning to “[(4-Methylbenzimidazol-5-yl)amino]guanidine [Example 2]”, the nasal congestion entry was “substantially diminished” in assay [1] (Example A oral tablet, 20.0 mg per tablet, one tablet swallowed); “rapidly and substantially diminished” in assay [1] (Example C sublingual tablet, 2.00 mg per tablet, one tablet under the tongue); “substantially diminished” in assay [1] (Example J alcohol-free oral liquid, 30 mg per 15 mL dose, one dose swallowed). The “congestion and runny nose” value in assay [2] is “effectively reduced”. The asthmatic condition entry in the assay on patient with asthma is recorded as “effectively relieved”.
With `Cc1c(NNC(=N)N)ccc2cccnc12` [Example 1, [(8-Methylquinolin-7-yl)amino]guanidine], the “symptoms of septic or cardiogenic shock” value in assay [3] is on record as “symptoms subside”. Moreover, the nasal congestion result in assay [1] (Example B chewable tablet, 15.0 mg per tablet, one tablet chewed and swallowed) is “substantially reduced”; in assay [1] (Example D intranasal solution 0.20 % w/v, one-tenth of a mL sprayed into each nostril), “substantially diminished”; in assay [1] (Example E intranasal gel 0.10 % w/v, one-fifth of a mL as drops into each nostril), “substantially reduced”. In addition, the intraocular pressure entry in the assay with patient with glaucoma is given as “substantially reduced”. Also, the “pain and aura of migraine” value in the assay with patient with migraine was “substantially diminished”.

The values above are taken from patent US6436978B1, “Guanidinylamino heterocycle compounds useful as α-2 adrenoceptor agonists” (The Procter & Gamble Co., priority 1996, dated 2002).
